Results published in patent publication US8846656B2, “Tetrahydropyrido-pyridine and tetrahydropyrido-pyrimidine compounds and use thereof as C5a receptor modulators” (Novartis AG, priority 2011, dated 2014).
Where two headings read alike, the source gives them in different places.

How the values were obtained:
human C5aR = human C5aR (Homo sapiens (Human), UniProt P21730); experiment: FLIPR assay: inhibition of C5a-mediated calcium mobilization; format: cell-based; details: stable cell line over expressing human C5aR & Gα15, human C5a at EC50 (0.1-0.25 nM)
human C5aR, sequence (P21730 whole entry): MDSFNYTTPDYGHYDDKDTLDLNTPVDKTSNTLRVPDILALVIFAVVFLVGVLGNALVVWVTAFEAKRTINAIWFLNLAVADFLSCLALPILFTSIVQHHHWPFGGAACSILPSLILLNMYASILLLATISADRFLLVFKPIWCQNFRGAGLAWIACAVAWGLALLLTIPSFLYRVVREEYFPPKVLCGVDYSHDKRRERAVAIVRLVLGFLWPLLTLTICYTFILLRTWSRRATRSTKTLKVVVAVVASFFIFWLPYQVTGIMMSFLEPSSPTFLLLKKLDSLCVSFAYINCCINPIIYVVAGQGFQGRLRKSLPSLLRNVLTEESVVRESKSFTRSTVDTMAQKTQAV
Method: Compounds were tested for their ability to inhibit C5a-mediated calcium mobilization using a stable cell line over expressing the human C5aR & the Gα15 protein on the FLIPR (Fluorescent Imaging Plate Reader) Tetra system. Cells were maintained in culture media containing DMEM (Dulbecco's Modified Eagle Medium) with 4.5 g/L glucose, 10% fetal bovine serum, 100 U/mL, 1× non-essential amino acid, and 250 μg/mL G418 (Geneticin). Prior to testing of compounds, cells were plated at 10,000 cells/well in clear bottom 384-well black plate, and incubated overnight at 37° C. with 5% CO2. On the day of experiment, culture media was removed, and replaced with assay buffer HBSS (Hanks' Balanced Salt Solution) with 20 mM HEPES (4-(2-hydroxyethyl)-1-piperazineethanesulfonic acid) and 0.1% BSA (bovine serum albumin) BSA containing calcium 5 dye (Molecular Devices) and 2.5 mM probenecid. After 1 hour incubation at 37° C., 5% CO2 for 60 min, cells were pre-incubated with compounds for 30 minutes at room temperature, in 1% DMSO (dimethyl sulfoxide).

CD11b = experiment: Human whole blood CD11b up-regulation assay; format: cell-based; details: 2 nM human C5a, CD15+ granulocytes, read-out: hCD11b IC50
Method: Whole blood was collected in sodium heparin tubes and the assay started within 2 hours of the blood draw. The blood was incubated with compounds in 1% DMSO (dimethyl sulfoxide) at room temperature for 10 minutes with gentle rocking. 2 nM of human C5a was then added for 15 minutes at room temperature with gentle rocking. Following the C5a incubation period cells were washed once with cold FACS (fluorescence-activated cell sorting) buffer (phosphate buffered saline+0.5% bovine serum albumin) FITC (fluorescein isothiocyanate) mouse anti-human CD15 and PE-Cy5 (phycoerythrin-cyanine 5) mouse anti-human CD11b antibodies (Becton Dickinson) were gently mixed with the cells and allowed to incubate for 30 minutes on ice protected from the light. Cells were then washed three times with cold FACS buffer. Red blood cells (RBC) were lysed by incubating with BD FACS lysis buffer (Becton Dickinson) for 10 minutes at room temperature. Cells were pelleted and the lysing procedure was repeated until all RBCs were lysed. The remaining leukocytes were resuspended in BD lysis buffer. Samples were acquired on the LSR^11 flow cytometer and 10,000 events of the CD15+ granulocyte population were collected. The CD11b median fluorescence intensity of the CD 15+ cell population was evaluated using FACSDiva software (Becton Dickinson).

| Structure (SMILES) | IC50 (human C5aR) [nM] | IC50 (CD11b; Homo sapiens) [nM] | IC50 (CD11b) [nM] |
| --- | --- | --- | --- |
| Cc1ccc(C(C)C)cc1N1CCc2nc(-c3c(C)ccc4[nH]nc(C)c34)nc(N3CC(N(C)C)C3)c2C1 [Example 65-A, 1-(2-(3,5-Dimethyl-1H-indazol-4-yl)-6-(5-isopropyl-2-methylphenyl)-5,6,7,8-tetrahydropyrido[4,3-d]pyrimidin-4-yl)-N,N-dimethylazetidin-3-amine] | 1 | 30 | – |
| COC1CCN(c2nc(-c3c(C)cccc3C)nc3c2CN([C@@H](C)c2ccccc2)CC3)CC1(C)C (mixture of isomers) [Example 33-C, (±)-2-(2,6-Dimethylphenyl)-4-(4-methoxy-3,3-dimethylpiperidin-1-yl)-6-((S)-1-phenylethyl)-5,6,7,8-tetrahydropyrido[4,3-d]pyrimidine] | 79 | 238 | – |
| CO[C@@H]1CCN(c2nc(-c3c(C)ccnc3C)nc3c2CN(c2cc(C(C)C)ccc2C)CC3)[C@H](C)C1 [Example 21-S, 2-(2,4-dimethylpyridin-3-yl)-6-(5-isopropyl-2-methylphenyl)-4-((2R,4R)-4-methoxy-2-methylpiperidin-1-yl)-5,6,7,8-tetrahydropyrido[4,3-d]pyrimidine] | 30 | 180 | – |
| CO[C@@H]1CCN(c2nc(-c3c(C)ccc4[nH]nc(C)c34)nc3c2CN(c2cc(C(C)C)ccc2C)CC3)C[C@H]1C [Example 19-AF] | 1 | 6 | – |
| Cc1ccc2[nH]nc(C)c2c1-c1nc2c(c(N3CCOC[C@H]3C)n1)CN(c1c(F)c(C3CC3)nn1C)CC2 [Example 76-C, (R)-4-(6-(3-Cyclopropyl-4-fluoro-1-methyl-1H-pyrazol-5-yl)-2-(3,5-dimethyl-1H-indazol-4-yl)-5,6,7,8-tetrahydropyrido[4,3-d]pyrimidin-4-yl)-3-methylmorpholine] | – | 46 | – |
| Cc1ccc2[nH]nc(C)c2c1-c1nc2c(c(N3CC[C@@H]4OC[C@]4(C)C3)n1)CN(c1c(Cl)c(C3CC3)nn1C)CC2 (racemic) [Example 69-L, (1S*,6S*)-3-(6-(4-chloro-3-cyclopropyl-1-methyl-1H-pyrazol-5-yl)-2-(3,5-dimethyl-1H-indazol-4-yl)-5,6,7,8-tetrahydropyrido[4,3-d]pyrimidin-4-yl)-1-methyl-7-oxa-3-azabicyclo[4.2.0]octane] | – | 54 | – |
| Cc1ccc(C(C)C)cc1N1CCc2nc(-c3cccc4[nH]cc(C)c34)nc(N3CCC[C@H](O)C3)c2C1 [Example 17-AV, (S)-1-(6-(5-isopropyl-2-methylphenyl)-2-(3-methyl-1H-indol-4-yl)-5,6,7,8-tetrahydropyrido[4,3-d]pyrimidin-4-yl)piperidin-3-ol] | 12 | – | – |
| Cc1ccc(C(C)C)cc1N1CCc2nc(-c3cccc4[nH]cc(C)c34)nc(N3CC4(COC4)C3)c2C1 [Example 17-BE, 6-(6-(5-isopropyl-2-methylphenyl)-2-(3-methyl-1H-indol-4-yl)-5,6,7,8-tetrahydropyrido[4,3-d]pyrimidin-4-yl)-2-oxa-6-azaspiro[3.3]heptanes] | 415 | – | – |
| CC(=O)N1CCN(c2nc(-c3ccccc3C(F)(F)F)nc3c2CN(c2cc(C(C)C)ccc2C)CC3)[C@H](C)C1 [Example 25-F, (R)-1-(4-(6-(5-isopropyl-2-methylphenyl)-2-(2-(trifluoromethyl)phenyl)-5,6,7,8-tetrahydropyrido[4,3-d]pyrimidin-4-yl)-3-methylpiperazin-1-yl)ethanone] | 23 | – | – |
| Cc1c[nH]c2cccc(-c3nc4c(c(N5CCN(CC(N)=O)[C@H](C)C5)n3)CN(c3ccc(F)cc3F)CC4)c12 [Example 24-I, (R)-2-(4-(6-(2,4-difluorophenyl)-2-(3-methyl-1H-indol-4-yl)-5,6,7,8-tetrahydropyrido[4,3-d]pyrimidin-4-yl)-2-methylpiperazin-1-yl)acetamide] | 464 | – | – |
| COCCN(C)c1cc(-c2c(C)cccc2C)nc2c1CN(c1cc(C(C)C)ccc1C)CC2 [Example 51-D, 2-(2,6-dimethylphenyl)-6-(5-isopropyl-2-methylphenyl)-N-(2-methoxyethyl)-N-methyl-5,6,7,8-tetrahydro-1,6-naphthyridin-4-amine] | 197 | – | – |
| COc1ccc(Cl)c(-c2cc(C)c3c(n2)CCN(c2cc(C(C)C)ccc2C)C3)c1 [Example 41-F, 2-(2-chloro-5-methoxyphenyl)-6-(5-isopropyl-2-methylphenyl)-4-methyl-5,6,7,8-tetrahydro-1,6-naphthyridine] | 550 | – | – |

Other lines, results leading:

| IC50 (human C5aR) [nM] | IC50 (CD11b; Homo sapiens) [nM] | IC50 (CD11b) [nM] | Structure (SMILES) |
| --- | --- | --- | --- |
| 5 | 51 | – | CO[C@@H]1CCN(c2nc(-c3c(C)cccc3C)nc3c2CN(c2cc(C(F)(F)F)ccc2C)CC3)[C@H](C)C1 [Example 21-AK, 2-(2,6-dimethylphenyl)-4-((2R,4R)-4-methoxy-2-methylpiperidin-1-yl)-6-(2-methyl-5-(trifluoromethyl)phenyl)-5,6,7,8-tetrahydropyrido[4,3-d]pyrimidine] |
| 14 | 2120 | – | [2H]C1([2H])c2c(C)cc(-c3c(CC)cccc3CC)nc2CCN1c1c(Cl)c(C2CC2)nn1C [Example 42-I, 6-(4-chloro-3-cyclopropyl-1-methyl-1H-pyrazol-5-yl)-2-(2,6-diethylphenyl)-4-methyl-5,6,7,8-tetrahydro(5,5-^2H2)-1,6-naphthyridine] |
| – | 153 | – | Cc1ccc(C(C)C)cc1N1CCc2nc(-c3c(C)ccc4[nH]ncc34)cc(C)c2C1 [Example 41-D, 6-(5-Isopropyl-2-methylphenyl)-4-methyl-2-(5-methyl-1H-indazol-4-yl)-5,6,7,8-tetrahydro-1,6-naphthyridine] |
| – | – | 38 | CCn1nc(C2CC2)c(Cl)c1N1CCc2nc(-c3c(C)ccc4[nH]nc(C)c34)nc(N3CCC3C)c2C1 (single isomer, unassigned) [Example 70-I, 6-(4-chloro-3-cyclopropyl-1-ethyl-1H-pyrazol-5-yl)-2-(3,5-dimethyl-1H-indazol-4-yl)-4-(2-methylazetidin-1-yl)-5,6,7,8-tetrahydropyrido[4,3-d]pyrimidine] |
| – | 178 | – | [2H]C1([2H])c2c(C)cc(-c3c(C)ccc4[nH]ncc34)nc2CCN1c1cc(C(C)C)ccc1C [Example 43-A, 6-(5-Isopropyl-2-methylphenyl)-4-methyl-2-(5-methyl-1H-indazol-4-yl)-5,6,7,8-tetrahydro(5,5-^2H2)-1,6-naphthyridine] |
| – | 41 | – | CCn1nc(C2CC2)c(Cl)c1N1CCc2nc(-c3c(C)ccc4[nH]nc(C)c34)nc(N3CCC3C)c2C1 (single isomer, unassigned) [Example 70-H, 6-(4-chloro-3-cyclopropyl-1-ethyl-1H-pyrazol-5-yl)-2-(3,5-dimethyl-1H-indazol-4-yl)-4-(2-methylazetidin-1-yl)-5,6,7,8-tetrahydropyrido[4,3-d]pyrimidine] |
| 37 | – | – | CCn1nc(C)c(N2CCc3nc(-c4c(C)ccc5[nH]ncc45)cc(C)c3C2)c1C [Example 40-P, 6-(1-ethyl-3,5-dimethyl-1H-pyrazol-4-yl)-4-methyl-2-(5-methyl-1H-indazol-4-yl)-5,6,7,8-tetrahydro-1,6-naphthyridine] |
| 198 | – | – | CCc1cccc(CC)c1-c1cc(C)c2c(n1)CCN(c1nnnn1C)C2 [Example 48, 2-(2,6-Diethylphenyl)-4-methyl-6-(1-methyl-1H-tetrazol-5-yl)-5,6,7,8-tetrahydro-1,6-naphthyridine] |
| 802 | – | – | [2H]C1([2H])c2c(C)cc(-c3c(C)cnc4[nH]ccc34)nc2CCN1c1cc(C(C)C)ccc1C [Example 43-D, 6-(5-isopropyl-2-methylphenyl)-4-methyl-2-(5-methyl-1H-pyrrolo[2,3-b]pyridin-4-yl)-5,6,7,8-tetrahydro(5,5-^2H2)-1,6-naphthyridine] |
| 58 | – | – | [2H]C1([2H])c2c(C)cc(-c3c(CC)cccc3CC)nc2CC(C)N1c1cc(C2CC2)nn1C (stereo not drawn) [Example 42-H, 6-(3-cyclopropyl-1-methyl-1H-pyrazol-5-yl)-2-(2,6-diethylphenyl)-4,7-dimethyl-5,6,7,8-tetrahydro(5,5-^2H2)-1,6-naphthyridine] |
| 5 | – | – | CCO[C@@H]1CCN(c2nc(-c3c(C)ccc4[nH]nc(C)c34)nc3c2CN(c2c(Cl)c(C4CC4)nn2C)CC3)[C@H](C)C1 [Example 55-J, 6-(4-chloro-3-cyclopropyl-1-methyl-1H-pyrazol-5-yl)-2-(3,5-dimethyl-1H-indazol-4-yl)-4-((2R,4R)-4-ethoxy-2-methylpiperidin-1-yl)-5,6,7,8-tetrahydropyrido[4,3-d]pyrimidine] |
| 868 | – | – | Cc1cc(-c2c(C)ccc3[nH]ncc23)nc2c1CN(c1cc(C3CC3)nn1C)CC2 [Example 40-Q, 6-(3-cyclopropyl-1-methyl-1H-pyrazol-5-yl)-4-methyl-2-(5-methyl-1H-indazol-4-yl)-5,6,7,8-tetrahydro-1,6-naphthyridine] |
